# Measured values as given in US20250235543A1, “MODIFIED PROTEINS AND PROTEIN DEGRADERS” (Cullgen (Shanghai), Inc., priority 2021, published 2025).
# Legend:
# CDK4, CDK6 = assay: Immunoblot of CDK4 and CDK6 protein levels in Calu-1 cells; assay type: cell-based; conditions: 500 nM CPD-002
# Experimental: Specific exemplary heterobifunctional compounds were characterized in Calu-1, BT-549 and other cells. Cells that express cyclin D1-3 and CDK4/6 proteins were treated with heterobifunctional compounds disclosed herein at indicated concentrations for 16 hours. Cells were collected, lysed and subject to immunoblotting using an antibody specific to cyclin D1, cyclin D2, cyclin D3, CDK4, CDK6 or phosphorylated R^b proteins. Tubulin or GAPDH was used as the loading control. DMSO treatment was used as the negative control.
# In a time-course study, Calu-1 cells were treated with 500 nM CPD-002, or 100 nM CPD-031 for indicated period of time prior to immunoblotting (FIG. 4A-4B).
# To verify that heterobifunctional compound-mediated degradation is dependent on the binding to CDK4-cyclin D complex, we designed three negative control compounds, CPD-042, CPD-049 and CPD-380, which are derived from CPD-002 CPD-031 and CPD-343, respectively. These three control compounds bear the same DDB1 ligand and linker as their corresponding active heterobifunctional compounds but with modified warheads to impair the binding of the control compounds to CDK4. […] Two cereblon (CRBN)-recruiting reference heterobifunctional compounds, CP-10 (Su, J Med Chem, 2019; CAS No.: 2366268-80-4) and BSJ-03-123 (Brand, Cell Chem Biol, 2019; CAS No.: 2361493-16-3) were analyzed in Calu-1 cells.
# DDB1 = biological target: T1, DDB1 (Homo sapiens, UniProt Q16531, D705G/DEL396-460/DEL463-701/I704S/T703N); assay: Surface plasmon resonance (SPR) binding of heterobifunctional compounds to DDB1; conditions: purified DDB1ΔBPB immobilized on CM5 chip, multi-cycle kinetic format, steady state model, read-out: binding affinities (Kd) to DDB1
# T1 construct: His6 (N, cleaved yes); TEV protease cleavage site (N, cleaved yes); made in house; host or cells: SF9 insect cells, Bac-to-Bac baculovirus, pFastBacHTB vector
# T1 sequence (Q16531 other isoform, or with tags, fused parts or gaps DEL396-460/DEL463-701/T703N/I704S/D705G): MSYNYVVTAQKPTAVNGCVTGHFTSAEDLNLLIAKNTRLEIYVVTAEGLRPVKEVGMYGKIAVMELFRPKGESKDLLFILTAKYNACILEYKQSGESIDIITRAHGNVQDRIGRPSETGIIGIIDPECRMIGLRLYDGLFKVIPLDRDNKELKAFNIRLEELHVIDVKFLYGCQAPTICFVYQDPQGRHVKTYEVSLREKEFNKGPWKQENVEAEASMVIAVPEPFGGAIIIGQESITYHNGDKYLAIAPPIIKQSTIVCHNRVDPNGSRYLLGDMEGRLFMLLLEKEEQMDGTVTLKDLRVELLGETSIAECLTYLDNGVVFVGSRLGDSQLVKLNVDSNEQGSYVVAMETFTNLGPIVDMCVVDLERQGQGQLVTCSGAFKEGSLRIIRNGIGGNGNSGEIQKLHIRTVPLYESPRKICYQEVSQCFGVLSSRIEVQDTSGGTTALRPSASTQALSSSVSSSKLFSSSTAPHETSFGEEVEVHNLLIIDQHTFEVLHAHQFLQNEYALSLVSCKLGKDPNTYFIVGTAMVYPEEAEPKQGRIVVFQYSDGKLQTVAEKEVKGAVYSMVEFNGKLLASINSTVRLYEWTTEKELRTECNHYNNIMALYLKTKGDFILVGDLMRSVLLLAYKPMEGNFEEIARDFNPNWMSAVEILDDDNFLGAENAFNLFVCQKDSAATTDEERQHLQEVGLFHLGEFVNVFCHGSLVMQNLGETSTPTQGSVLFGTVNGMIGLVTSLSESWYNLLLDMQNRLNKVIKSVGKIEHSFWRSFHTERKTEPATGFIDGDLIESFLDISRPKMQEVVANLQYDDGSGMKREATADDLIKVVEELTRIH
# Experimental: To determine whether the addition of linkers and target binders to the DDB1 ligands affected the binding to DDB1 E3 ligase, the binding affinities of heterobifunctional compounds to DDB1 was evaluated using a surface plasmon resonance (SPR) assay. Purified DDB1ΔBPB proteins were immobilized on a CM5 sensor chip and a dose range of compound solutions were injected in multi-cycle kinetic format. Data was fit to steady state model and gave equivalent dissociation constants (Kd).
# cyclin D1 = assay: Immunoblot of cyclin D1 in parental or DDB1 knockout Hs578T cells; assay type: cell-based; conditions: parental vs DDB1 knockout Hs578T cells, 4 hours
# Experimental: FIG. 5 show immunoblots of cyclin D1, cyclin D2 and cyclin D3 proteins expressed by Calu-1 cells after treatment with heterobifunctional compounds CPD-002 and CPD-004 (A), or CPD-031 (B) in the presence or absence of MLN4924 (MLN), MG-132 (MG), or TAK-243 (TAK), and immunoblots of cyclin D1 proteins expressed in parental or DDB1 knockout Hs578T cells after treatment with heterobifunctional compound CPD-031 at indicated concentrations for 4 hours (C).
# The heterobifunctional compound-mediated degradation was dependent on the ubiquitin-proteasome system and cullin E3 ligase. […] In addition, DDB1 E3 ligase was critical for the degrader-induced cyclin D downregulation. Depletion of DDB1 using CRISPR-Cas9 technology attenuated the cyclin D degradation induced by CPD-031 (FIG. 5C).
Structure (SMILES),"degradation of CDK4 and CDK6 relative to cyclin D, time-course (CDK4, CDK6)",Kd (DDB1) [µM],cyclin D degradation after depletion of DDB1 (CRISPR-Cas9) (cyclin D1)
"CC(=O)c1c(C)c2cnc(Nc3ccc(N4CCN(CC(=O)NCCOCCOCCOCCOCCOCCNc5ccc(C(=O)Nc6ncc(C)s6)c(C)c5)CC4)cn3)nc2n(C2CCCC2)c1=O [CPD-002, 4-((1-(4-(6-((6-Acetyl-8-cyclopentyl-5-methyl-7-oxo-7,8-dihydropyrido[2,3-d]pyrimidin-2-yl)amino)pyridin-3-yl)piperazin-1-yl)-2-oxo-6,9,12,15,18-pentaoxa-3-azaicosan-20-yl)amino)-2-methyl-N-(5-methylthiazol-2-yl)benzamide]",occurred much slower,,
"CC(=O)c1c(C)c2cnc(Nc3ccc(N4CCN(CC(=O)NCCOCCOCCOCCOCCOCCNc5ccc(C(=O)Nc6nc(C)c(C)s6)c(C)c5)CC4)cn3)nc2n(C2CCCC2)c1=O [CPD-031, 4-((1-(4-(6-((6-Acetyl-8-cyclopentyl-5-methyl-7-oxo-7,8-dihydropyrido[2,3-d]pyrimidin-2-yl)amino)pyridin-3-yl)piperazin-1-yl)-2-oxo-6,9,12,15,18-pentaoxa-3-azaicosan-20-yl)amino)-N-(4,5-dimethylthiazol-2-yl)-2-methylbenzamide]",,5.7,attenuated
